# Data from PubChem BioAssay (NCI).
#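 Each compound was tested at five concentrations against cells in 96-well plates for 48 hours. GI50 marks 50% less growth. At the TGI there is no net growth.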
# Assays:
# Experiment in all cases: NCI-60 cell line screen, 48 h
# 786-0 renal = system: 786-0 renal
# A549 NSCLC = system: A549 NSCLC
# CCRF-CEM leukemia = system: CCRF-CEM leukemia
# K-562 leukemia = system: K-562 leukemia
# MOLT-4 leukemia = system: MOLT-4 leukemia
# NCI-H23 lung = system: NCI-H23 lung
# OVCAR-3 ovarian = system: OVCAR-3 ovarian
# OVCAR-5 ovarian = system: OVCAR-5 ovarian
# SF-268 CNS = system: SF-268 CNS
# SK-MEL-2 melanoma = system: SK-MEL-2 melanoma
# SK-MEL-5 melanoma = system: SK-MEL-5 melanoma
# SK-OV-3 ovarian = system: SK-OV-3 ovarian
# SNB-75 CNS = system: SNB-75 CNS
# SR leukemia = system: SR leukemia
# T-47D breast = system: T-47D breast
# TK-10 renal = system: TK-10 renal
# A498 renal = system: A498 renal
# ACHN renal = system: ACHN renal
# CAKI-1 renal = system: CAKI-1 renal
# COLO 205 colon = system: COLO 205 colon
# DU-145 prostate = system: DU-145 prostate
# EKVX NSCLC = system: EKVX NSCLC
# HCC-2998 colon = system: HCC-2998 colon
# HCT-116 colon = system: HCT-116 colon
# HCT-15 colon = system: HCT-15 colon
# HOP-62 NSCLC = system: HOP-62 NSCLC
# HS 578T breast = system: HS 578T breast
# HT29 colon = system: HT29 colon
# IGROV1 ovarian = system: IGROV1 ovarian
# KM12 colon = system: KM12 colon
# LOX IMVI melanoma = system: LOX IMVI melanoma
# M14 melanoma = system: M14 melanoma
# MALME-3M melanoma = system: MALME-3M melanoma
# MCF7 breast = system: MCF7 breast
# MDA-MB-231 breast = system: MDA-MB-231 breast
# MDA-MB-435 = system: MDA-MB-435
# NCI-H226 lung = system: NCI-H226 lung
# NCI-H460 lung = system: NCI-H460 lung
# NCI-H522 lung = system: NCI-H522 lung
# NCI/ADR-RES ovarian = system: NCI/ADR-RES ovarian
# OVCAR-4 ovarian = system: OVCAR-4 ovarian
# OVCAR-8 ovarian = system: OVCAR-8 ovarian
# PC-3 prostate = system: PC-3 prostate
# RPMI-8226 leukemia = system: RPMI-8226 leukemia
# RXF 393 renal = system: RXF 393 renal
# SF-295 CNS = system: SF-295 CNS
# SF-539 CNS = system: SF-539 CNS
# SK-MEL-28 melanoma = system: SK-MEL-28 melanoma
# SN12C renal = system: SN12C renal
# SNB-19 CNS = system: SNB-19 CNS
# SW-620 colon = system: SW-620 colon
# U251 CNS = system: U251 CNS
# UACC-62 melanoma = system: UACC-62 melanoma
# UO-31 renal = system: UO-31 renal
compound,measurement,setting,value
N#Cc1c2cccnc2c2nnc3cc(Cl)c(Cl)cc3n12,GI50,786-0 renal,> 100 µM
same,TGI,786-0 renal,> 100 µM
same,GI50,A549 NSCLC,> 100 µM
same,TGI,A549 NSCLC,> 100 µM
same,GI50,CCRF-CEM leukemia,3.06 µM
same,TGI,CCRF-CEM leukemia,> 100 µM
same,GI50,K-562 leukemia,3.52 µM
same,TGI,K-562 leukemia,> 100 µM
same,GI50,MOLT-4 leukemia,3.59 µM
same,TGI,MOLT-4 leukemia,> 100 µM
same,GI50,NCI-H23 lung,2.81 µM
same,TGI,NCI-H23 lung,> 100 µM
same,GI50,OVCAR-3 ovarian,1.83 µM
same,TGI,OVCAR-3 ovarian,3.27 µM
same,GI50,OVCAR-5 ovarian,> 100 µM
same,TGI,OVCAR-5 ovarian,> 100 µM
same,GI50,SF-268 CNS,2.26 µM
same,TGI,SF-268 CNS,5.25 µM
same,GI50,SK-MEL-2 melanoma,3.33 µM
same,TGI,SK-MEL-2 melanoma,> 100 µM
same,GI50,SK-MEL-5 melanoma,> 100 µM
same,TGI,SK-MEL-5 melanoma,> 100 µM
same,GI50,SK-OV-3 ovarian,> 100 µM
same,TGI,SK-OV-3 ovarian,> 100 µM
same,GI50,SNB-75 CNS,1.54 µM
same,TGI,SNB-75 CNS,3.96 µM
same,GI50,SR leukemia,0.923 µM
same,TGI,SR leukemia,7.51 µM
same,GI50,T-47D breast,1.6 µM
same,TGI,T-47D breast,4 µM
same,GI50,TK-10 renal,> 100 µM
same,TGI,TK-10 renal,> 100 µM
CC(C)(O)C1CCC(Nc2ccc3ncc(-c4cccc(C(F)(F)F)c4)n3n2)CC1 (stereo not drawn),GI50,786-0 renal,1.94 µM
same,TGI,786-0 renal,4.64 µM
same,GI50,A498 renal,1.48 µM
same,TGI,A498 renal,4.49 µM
same,GI50,A549 NSCLC,3.1 µM
same,TGI,A549 NSCLC,13.2 µM
same,GI50,ACHN renal,2.12 µM
same,TGI,ACHN renal,12.3 µM
same,GI50,CAKI-1 renal,1.67 µM
same,TGI,CAKI-1 renal,7.16 µM
same,GI50,CCRF-CEM leukemia,0.946 µM
same,TGI,CCRF-CEM leukemia,7.89 µM
same,GI50,COLO 205 colon,2.62 µM
same,TGI,COLO 205 colon,21.5 µM
same,GI50,DU-145 prostate,3.52 µM
same,TGI,DU-145 prostate,14.8 µM
same,GI50,EKVX NSCLC,3.82 µM
same,TGI,EKVX NSCLC,> 100 µM
same,GI50,HCC-2998 colon,3.26 µM
same,TGI,HCC-2998 colon,> 100 µM
same,GI50,HCT-116 colon,3.54 µM
same,TGI,HCT-116 colon,18.5 µM
same,GI50,HCT-15 colon,2.17 µM
same,TGI,HCT-15 colon,11.3 µM
same,GI50,HOP-62 NSCLC,2.37 µM
same,TGI,HOP-62 NSCLC,11.8 µM
same,GI50,HS 578T breast,1.59 µM
same,TGI,HS 578T breast,4.67 µM
same,GI50,HT29 colon,2.23 µM
same,TGI,HT29 colon,12 µM
same,GI50,IGROV1 ovarian,2.48 µM
same,TGI,IGROV1 ovarian,11.6 µM
same,GI50,K-562 leukemia,2.27 µM
same,TGI,K-562 leukemia,11.9 µM
same,GI50,KM12 colon,0.132 µM
same,TGI,KM12 colon,11.7 µM
same,GI50,LOX IMVI melanoma,1.56 µM
same,TGI,LOX IMVI melanoma,4.23 µM
same,GI50,M14 melanoma,1.23 µM
same,TGI,M14 melanoma,4.49 µM
same,GI50,MALME-3M melanoma,2.25 µM
same,TGI,MALME-3M melanoma,13.6 µM
same,GI50,MCF7 breast,2.75 µM
same,TGI,MCF7 breast,12.5 µM
same,GI50,MDA-MB-231 breast,1.96 µM
same,TGI,MDA-MB-231 breast,14 µM
same,GI50,MDA-MB-435,2.06 µM
same,TGI,MDA-MB-435,> 100 µM
same,GI50,MOLT-4 leukemia,1.8 µM
same,TGI,MOLT-4 leukemia,7.02 µM
same,GI50,NCI-H226 lung,2.19 µM
same,TGI,NCI-H226 lung,27 µM
same,GI50,NCI-H23 lung,3.16 µM
same,TGI,NCI-H23 lung,30.2 µM
same,GI50,NCI-H460 lung,2.7 µM
same,TGI,NCI-H460 lung,12.1 µM
same,GI50,NCI-H522 lung,1.73 µM
same,TGI,NCI-H522 lung,5.92 µM
same,GI50,NCI/ADR-RES ovarian,2.7 µM
same,TGI,NCI/ADR-RES ovarian,19.5 µM
same,GI50,OVCAR-3 ovarian,2.99 µM
same,TGI,OVCAR-3 ovarian,13.3 µM
same,GI50,OVCAR-4 ovarian,2.62 µM
same,TGI,OVCAR-4 ovarian,12.5 µM
same,GI50,OVCAR-5 ovarian,2.92 µM
same,TGI,OVCAR-5 ovarian,> 100 µM
same,GI50,OVCAR-8 ovarian,2.97 µM
same,TGI,OVCAR-8 ovarian,13.4 µM
same,GI50,PC-3 prostate,0.815 µM
same,TGI,PC-3 prostate,12.7 µM
same,GI50,RPMI-8226 leukemia,0.266 µM
same,TGI,RPMI-8226 leukemia,0.79 µM
same,GI50,RXF 393 renal,1.11 µM
same,TGI,RXF 393 renal,2.81 µM
same,GI50,SF-268 CNS,3.79 µM
same,TGI,SF-268 CNS,18.2 µM
same,GI50,SF-295 CNS,1.66 µM
same,TGI,SF-295 CNS,4.67 µM
same,GI50,SF-539 CNS,1.77 µM
same,TGI,SF-539 CNS,11.2 µM
same,GI50,SK-MEL-2 melanoma,2.13 µM
same,TGI,SK-MEL-2 melanoma,4.82 µM
same,GI50,SK-MEL-28 melanoma,1.6 µM
same,TGI,SK-MEL-28 melanoma,3.91 µM
same,GI50,SK-OV-3 ovarian,2.68 µM
same,TGI,SK-OV-3 ovarian,9.19 µM
same,GI50,SN12C renal,3.17 µM
same,TGI,SN12C renal,17 µM
same,GI50,SNB-19 CNS,4.36 µM
same,TGI,SNB-19 CNS,21.8 µM
same,GI50,SNB-75 CNS,1.77 µM
same,TGI,SNB-75 CNS,8.99 µM
same,GI50,SR leukemia,1.87 µM
same,TGI,SR leukemia,11.1 µM
same,GI50,SW-620 colon,2.91 µM
same,TGI,SW-620 colon,15 µM
same,GI50,T-47D breast,1.5 µM
same,TGI,T-47D breast,5.13 µM
same,GI50,TK-10 renal,2.62 µM
same,TGI,TK-10 renal,14.1 µM
same,GI50,U251 CNS,2.36 µM
same,TGI,U251 CNS,11.9 µM
same,GI50,UACC-62 melanoma,1.97 µM
same,TGI,UACC-62 melanoma,8.83 µM
same,GI50,UO-31 renal,1.07 µM
same,TGI,UO-31 renal,11 µM
